Results on five compounds are retold here after US11655244B2, “Carbazole compounds and methods of use thereof” (GSNO Therapeutics, Inc, priority 2017, dated 2023).

In assay [1] the test system is Bleomycin-induced idiopathic pulmonary fibrosis model in male C57BL/6 mice. The assay is described as follows: Bleomycin-induced idiopathic pulmonary fibrosis model. Particulars: 100 mg/kg, p.o., b.i.d., from day 14 to 28. It is filed as in vivo. How it is done:
Compound 17 was made-up fresh every 4 days. A required amount of the test compound was weighed in a glass vial and the purity factor was calculated. A stock solution of 1 mg/ml (10 mg/kg) was made in distilled water (pH 8) and the subsequent 3 and 1 mg/kg doses (concentrations) were obtained by serial dilution of the 1 mg/ml stock solution. A clear and transparent solution was observed. Animals were dosed with Compound 17 at 1 mg/kg, 3 mg/kg and 10 mg/kg, i.p (intraperitoneal), once daily from day 14 to 28.
Pirfenidone was weighed in a glass vial and suspended in 0.5% methyl cellulose to obtain a 10 mg/ml formulation. A clear homogenous suspension was observed. Animals were dosed with Pirfenidone at 100 mg/kg, p.o., b.i.d., from day 14 to 28.

For assay [2], the target named is T1, GSNOR enzyme (Homo sapiens, UniProt P11766). The assay is described as follows: GSNOR inhibition assay (rate of NADH consumption, 340 nm absorbance). It is filed as biochemical. Particulars: Table 2b; read-out: IC50 Micromolar.
T1 sequence (P11766 whole entry): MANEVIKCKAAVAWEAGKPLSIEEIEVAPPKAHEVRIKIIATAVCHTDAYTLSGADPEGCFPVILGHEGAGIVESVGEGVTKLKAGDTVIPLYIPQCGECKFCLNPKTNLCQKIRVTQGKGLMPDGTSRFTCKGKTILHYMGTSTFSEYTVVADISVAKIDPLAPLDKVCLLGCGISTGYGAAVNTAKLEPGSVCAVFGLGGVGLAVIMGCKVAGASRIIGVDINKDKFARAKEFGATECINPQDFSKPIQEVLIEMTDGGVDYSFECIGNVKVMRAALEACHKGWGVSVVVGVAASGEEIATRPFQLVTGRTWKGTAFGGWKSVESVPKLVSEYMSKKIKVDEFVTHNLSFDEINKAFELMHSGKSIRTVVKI
In assay [3] the target is T1, GSNOR enzyme. The assay is described as above. The format is biochemical. The protocol: The following compounds were also prepared based on the methods described herein, using the appropriate starting materials. Table 2a and Table 2b also provides the % GSNOR inhibition at 20 μM of compounds described herein. […] The buffer was 100 mM phosphate buffer (pH 7.4.) The rate of NADH consumption for each well was determined by ultraviolet spectroscopy. Plates were read on a Molecular Devices Spectra Max UV/Visible Spectrophotometer/plate reader and the change in 340 nm absorbance at 25° C. was recorded for each well at 10 sec intervals over the duration of the recording period (2˜5 minutes). The rate was measured from the linear portion of the curve. Final test compound concentration was 20 μM. The mean % inhibition from 3 test compound wells and 5 control wells was measured as the percentage of the mean no compound+enzyme−the mean no enzyme, no compound control.

Assay [4] deals with IL-6. The assay is described as follows: LPS/cytokine assay (mouse inflammation assay), IL-6. The format is in vivo, CD-1 male mice. Conditions: for LPS/IL6 Lowest tested active: CD-1 male mice, IP or IV, cytokine typically 6 hrs after LPS. The protocol:
Table 2b also includes additional biological data of compounds described herein. The LPS/cytokine Assay was carried out in CD-1 male mice. The assay measured the level of various cytokines, including IL-6, IL-17, and IL-23, after induction by bacterial liposaccharide (LPS). Compounds were dosed by IP or IV routes of administration at varying times before and after LPS and the cytokine concentrations were measured at varying times, typically 6 hrs, after LPS by standard methods using ELISA kits.
BIOLOGICAL TESTING: Compounds 10 and 17 from Table 1 were tested in a mouse inflammation assay. Briefly, CD-1 mice were dosed with compound, 12 hrs before injecting mice I.P. with the potent cytokine inducer, bacterial lipopolysaccharide (LPS). The mice were euthanized 6 hrs after the LPS was injected and their serum prepared by standard methods. The concentration of IL-6 in the serum of each experimental animal was measured using an IL-6 ELISA kit from Enzo. The compounds tested were active.
This LPS/cytokine assay was carried out in healthy mice and measured the level of cytokine IL-6, IL-17, and 23 induction by LPS. Compounds are dosed (either orally (“p.o.”) or intravenously (“i.v.”) at varying times before and after LPS, and the cytokines are measured at varying times after LPS. The effect of the tested compounds (Table 5) on IL-6 release is shown in FIG. 7. The effect of the tested compounds (Table 6) on IL-17 an IL-23 release is shown in FIG. 11 and FIG. 12, respectively.

The mark [5] stands for this setting: Table 2b, test compound 20 uM, read-out: % GSNOR Inhibition at 20 uM.

Each structure is given as a SMILES string. Read-outs that look alike come from different tables or passages of the source.

Regarding `Cc1ccc(=O)n(-c2ccccc2)c1` [Pirfenidone, reference compound], in assay [1], the “pulmonary fibrosis (Ashcroft score and percentage collagen proportionate area) vs disease control” value is “notable mitigation of pulmonary fibrosis”.

As usually defined, the IC50 is the concentration needed to halve the response being measured. Consider `Cc1cc(C(N)=O)ccc1-n1c2ccc(-n3ccnc3)cc2c2ccc(CCC(=O)O)cc21` [Compound 21], for which, in assay [2], the IC50 fell in the range of 1000 to 5000 nM. Besides, the inhibition at 20 µM in assay [3] (setting [5]) worked out at 93.6%. In addition, in assay [4], the “LPS/IL6 Lowest tested active” value is recorded as 0.3 mg/kg.

Take `N#CCCn1c2ccc(-n3ccnc3)cc2c2ccc(CCC(=O)O)cc21` [Compound 26, 3-(imidazol-1(H)-yl)-7-(2-carboxylethyl)-9(H)-(2-cyanoethyl) carbazole]: the IC50 in assay [2] was below 1000 nM. For the same compound, the inhibition at 20 µM in assay [3] (setting [5]) amounted to 92.4%. Besides, in assay [4], the “LPS/IL6 Lowest tested active” value came out at 0.3 mg/kg.

With `N#CCCCCn1c2ccc(-n3ccnc3)cc2c2ccc(CCC(=O)O)cc21` [Compound 31], the half-inhibitory concentration (IC50) in assay [2] was below 1000 nM. Further, in assay [3] (setting [5]), the inhibition at 20 µM stood at 92.9%. In assay [4], the “LPS/IL6 Lowest tested active” value came out at 0.3 mg/kg.

As to `NC(=O)CCn1c2ccc(-n3ccnc3)cc2c2ccc(C(=O)O)cc21` [Compound 10, 9-(3-amino-3-oxopropyl)-6-(1H-imidazo-1-yl)-9H-carbazole-2-carboxylic acid], the IC50 in assay [2] is below 1000 nM. The inhibition at 20 µM was found to be 85% in assay [3] (Table 2a, test compound 20 μM, pH 7.4, 25° C., read-out: % Inhibit. at 20 μM) and 75% in assay [3] (setting [5]). For the same compound, the “LPS/IL6 Lowest tested active” value in assay [4] worked out at 30 mg/kg. Also, the “IL-6 in serum after LPS (mouse inflammation assay)” value in assay [4] (dosed 12 hrs before LPS I.P., serum 6 hrs after LPS) is listed as “active”.
